{
  "source": "ChEMBL document CHEMBL1148926",
  "about": "“Blanchaquinone: a new anthraquinone from an Australian Streptomyces sp” (2004)",
  "data": [
    {"system": "Bacillus subtilis", "experiment": "Antibacterial activity against Bacillus subtilis ATCC 6633 after 24 hrs by microtiter plate assay", "type": "functional", "units": {"LD99": "µg/mL"}, "values": [
      {"smiles": "CC[C@@]1(O)C[C@H](O)c2c(O)c3c(c(O)c2[C@H]1C(=O)OC)C(=O)c1cccc(O)c1C3=O", "LD99": 0.8},
      {"smiles": "CCc1ccc2c(O)c3c(c(O)c2c1)C(=O)c1cccc(O)c1C3=O", "LD99": 13},
      {"smiles": "COC(=O)Cc1cc2c(c(O)c1C(C)=O)C(=O)c1c(O)cccc1C2=O", "LD99": 3},
      {"smiles": "COC(=O)[C@@H]1c2c(O)c3c(c(O)c2[C@@H](O)C[C@@]1(C)O)C(=O)c1c(O)cccc1C3=O", "LD99": 6},
      {"smiles": "COC(=O)[C@@H]1c2c(O)c3c(c(O)c2[C@@H](O)C[C@]1(O)CC(C)=O)C(=O)c1c(O)cccc1C3=O", "LD99": 13},
      {"smiles": "CCCCC(=O)c1c(CC(=O)OC)cc2c(c1O)C(=O)c1c(O)cccc1C2=O", "note": "[BLANCHAQUINONE]", "LD99": 6}
    ]}
  ]
}
